Measurements published in US8435983B2, “Conformationally restrained epothilone analogues as anti-leukemic agents” (The University of Toledo, priority 2007, dated 2013).
Like-named read-outs stand apart in the source and are kept apart here.

How the values were obtained:
SR leukemia cell line [1] = conditions: comparison value for paclitaxel; cited from earlier work
[2] = test system: CCRF-CEM leukemia cell line; conditions: comparison value for paclitaxel; cited from earlier work
SR leukemia cell line [3] = test: NCI in vitro 60 cell line human tumor screen, SR; type: cell-based; conditions: NCI 60 cell line screen
[4] = test system: CCRF-CEM leukemia cell line; test: NCI in vitro 60 cell line human tumor screen, CCRF-CEM; type: cell-based; conditions: NCI 60 cell line screen
[5] = test system: NCI 60 human tumor cell lines, including breast cancer and ovarian cancer cell lines; test: NCI in vitro 60 cell line human tumor screen, cell line panel; type: cell-based
[6] = test system: BCF-7 breast cancer cells; test: preliminary growth inhibition assay on BCF-7 breast cancer cells; type: cell-based

CC(=O)O[C@H]1C(=O)[C@@]2(C)[C@H]([C@H](OC(=O)c3ccccc3)[C@]3(O)C[C@H](OC(=O)[C@H](O)[C@@H](NC(=O)c4ccccc4)c4ccccc4)C(C)=C1C3(C)C)[C@]1(OC(C)=O)CO[C@@H]1C[C@@H]2O [paclitaxel]
GI50 (SR leukemia cell line [1]): 15.8 nM | GI50 [2]: 12.6 nM

CC1=C(c2ccc(C)cn2)C[C@H]2/C=C(/C)CCC[C@H](C)[C@H](O)[C@@H](C)C(=O)C(C)(C)[C@@H](O)CC(=O)O[C@H]12 [Compound 1b, (3S,6R,7S,8S,1′S,5′S)-7,11-Dihydroxy-3,8,8,10,12,16-hexamethyl-2-(5-methyl-pyridin-2-yl)-3a,7,8,10,11,12,13,14,15,17a-decahydro-1H,6H-4-oxa-cyclopentacyclohexadecene-5,9-dione]
GI50 (SR leukemia cell line [3]): 2.9 nM | GI50 [4]: 2.7 nM | growth inhibitory activity on the other NCI 60 cell lines ([5]; all lines other than CCRF-CEM and SR, including breast cancer and ovarian cancer cell lines): no significant activity

CC1=C(c2ccccc2)C[C@H]2/C=C(/C)CCC[C@H](C)[C@H](O)[C@@H](C)C(=O)C(C)(C)[C@@H](O)CC(=O)O[C@H]12 [Compound 1a]
growth inhibition [6]: no activity

C=C(C)CCC[C@H](C)[C@H](O)[C@@H](C)C(=O)C(C)(C)[C@@H](O)CC(=O)O[C@@H]1C(C)=C(c2ccc(C)cn2)C[C@H]1/C=C/c1ccccc1 [Compound 35, 3,7-Dihydroxy-4,4,6,8,12-pentamethyl-5-oxo-tridec-12-enoic acid 2-methyl-3-(5-methyl-pyridin-2-yl)-5-styryl-cyclopent-2-enyl ester]
activity in the NCI 60 cell line assay ([5]; any of the cell lines): no significant activity
